Measured values reported in PubChem BioAssay (NCI).
“And” between values parts separate entries of the source, which are not always exact repeats. Identical values can stand only once.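 All cell lines were grown in 96-well plates and treated with compound for 48 hours. The concentration for 50% growth inhibition is given as GI50. TGI: total growth inhibition.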

Columns and labels:
Assay in all cases: growth of human tumour cells (NCI), 48 h
PC-3 prostate = system: PC-3 prostate
U251 CNS = system: U251 CNS
SR leukemia = system: SR leukemia
NCI-H522 lung = system: NCI-H522 lung
MCF7 breast = system: MCF7 breast
A498 renal = system: A498 renal
MALME-3M melanoma = system: MALME-3M melanoma
SK-MEL-28 melanoma = system: SK-MEL-28 melanoma
T-47D breast = system: T-47D breast
SF-295 CNS = system: SF-295 CNS
NCI-H460 lung = system: NCI-H460 lung
BT-549 breast = system: BT-549 breast
RXF 393 renal = system: RXF 393 renal
TK-10 renal = system: TK-10 renal
LOX IMVI melanoma = system: LOX IMVI melanoma
NCI/ADR-RES ovarian = system: NCI/ADR-RES ovarian
COLO 205 colon = system: COLO 205 colon
SK-MEL-2 melanoma = system: SK-MEL-2 melanoma
UACC-62 melanoma = system: UACC-62 melanoma
SW-620 colon = system: SW-620 colon
MDA-MB-435 = system: MDA-MB-435
NCI-H23 lung = system: NCI-H23 lung
MOLT-4 leukemia = system: MOLT-4 leukemia
CAKI-1 renal = system: CAKI-1 renal
UO-31 renal = system: UO-31 renal
OVCAR-3 ovarian = system: OVCAR-3 ovarian
HOP-92 NSCLC = system: HOP-92 NSCLC
HCT-15 colon = system: HCT-15 colon
786-0 renal = system: 786-0 renal
SNB-75 CNS = system: SNB-75 CNS
DU-145 prostate = system: DU-145 prostate
MDA-MB-231 breast = system: MDA-MB-231 breast
SF-268 CNS = system: SF-268 CNS
IGROV1 ovarian = system: IGROV1 ovarian
HS 578T breast = system: HS 578T breast
EKVX NSCLC = system: EKVX NSCLC
SK-OV-3 ovarian = system: SK-OV-3 ovarian
A549 NSCLC = system: A549 NSCLC
CCRF-CEM leukemia = system: CCRF-CEM leukemia
HOP-62 NSCLC = system: HOP-62 NSCLC
HCC-2998 colon = system: HCC-2998 colon
KM12 colon = system: KM12 colon
NCI-H226 lung = system: NCI-H226 lung
SK-MEL-5 melanoma = system: SK-MEL-5 melanoma
SF-539 CNS = system: SF-539 CNS
OVCAR-8 ovarian = system: OVCAR-8 ovarian
K-562 leukemia = system: K-562 leukemia
OVCAR-5 ovarian = system: OVCAR-5 ovarian
UACC-257 melanoma = system: UACC-257 melanoma
HT29 colon = system: HT29 colon
RPMI-8226 leukemia = system: RPMI-8226 leukemia
SN12C renal = system: SN12C renal
M14 melanoma = system: M14 melanoma
HL-60(TB) leukemia = system: HL-60(TB) leukemia
SNB-19 CNS = system: SNB-19 CNS
HCT-116 colon = system: HCT-116 colon
ACHN renal = system: ACHN renal
OVCAR-4 ovarian = system: OVCAR-4 ovarian

Compound: C=C(CN1CCN(c2cccc(C(F)(F)F)n2)CC1)c1ccc(C(=O)Nc2ccccc2N)cc1
- GI50 (PC-3 prostate): 420 nM and 484 nM
- TGI (PC-3 prostate): > 100000 nM
- GI50 (U251 CNS): 1160 nM and 429 nM
- TGI (U251 CNS): 34400 nM and 12800 nM
- GI50 (SR leukemia): > 39100 nM
- TGI (SR leukemia): > 100000 nM
- GI50 (NCI-H522 lung): 1110 nM and 896 nM
- TGI (NCI-H522 lung): > 100000 nM and 38100 nM
- GI50 (MCF7 breast): 349 nM and 293 nM
- TGI (MCF7 breast): > 100000 nM
- GI50 (A498 renal): 875 nM and 261 nM
- GI50 (MALME-3M melanoma): 1060 nM and 338 nM
- TGI (MALME-3M melanoma): > 100000 nM and 28200 nM
- GI50 (SK-MEL-28 melanoma): 2080 nM and 422 nM
- TGI (SK-MEL-28 melanoma): > 100000 nM and 15500 nM
- GI50 (T-47D breast): 3010 nM and 616 nM
- TGI (T-47D breast): > 100000 nM
- GI50 (SF-295 CNS): 387 nM and 191 nM
- GI50 (NCI-H460 lung): 640 nM and 370 nM
- TGI (NCI-H460 lung): > 100000 nM
- GI50 (BT-549 breast): 918 nM and 340 nM
- TGI (BT-549 breast): 88400 nM and > 100000 nM
- GI50 (RXF 393 renal): 672 nM and 2120 nM
- TGI (RXF 393 renal): 26100 nM and > 100000 nM
- TGI (TK-10 renal): > 100000 nM and 35400 nM
- GI50 (LOX IMVI melanoma): 1500 nM and 496 nM
- TGI (LOX IMVI melanoma): > 100000 nM
- GI50 (NCI/ADR-RES ovarian): 641 nM and 400 nM
- TGI (NCI/ADR-RES ovarian): > 100000 nM
- GI50 (COLO 205 colon): 3340 nM and 907 nM
- GI50 (SK-MEL-2 melanoma): 5650 nM and 851 nM
- TGI (SK-MEL-2 melanoma): 41500 nM and > 58000 nM
- GI50 (UACC-62 melanoma): 970 nM and 510 nM
- TGI (UACC-62 melanoma): > 100000 nM
- GI50 (SW-620 colon): 528 nM and 416 nM
- TGI (SW-620 colon): > 100000 nM
- GI50 (MDA-MB-435): 270 nM and 205 nM
- TGI (MDA-MB-435): 2260 nM and 767 nM
- GI50 (NCI-H23 lung): 14100 nM and 1800 nM
- TGI (NCI-H23 lung): > 100000 nM
- GI50 (MOLT-4 leukemia): 855 nM and 478 nM
- TGI (MOLT-4 leukemia): > 100000 nM
- GI50 (CAKI-1 renal): 512 nM and 520 nM
- TGI (CAKI-1 renal): > 100000 nM and 25700 nM
- GI50 (UO-31 renal): 2760 nM and 465 nM
- TGI (UO-31 renal): 72200 nM and > 76600 nM
- GI50 (OVCAR-3 ovarian): 258 nM and 261 nM
- TGI (OVCAR-3 ovarian): 1120 nM and 982 nM
- GI50 (HOP-92 NSCLC): 2000 nM
- TGI (HOP-92 NSCLC): 43900 nM
- GI50 (HCT-15 colon): 918 nM and 404 nM
- TGI (HCT-15 colon): > 100000 nM
- GI50 (786-0 renal): 1970 nM and 705 nM
- TGI (786-0 renal): 70000 nM and 14000 nM
- GI50 (SNB-75 CNS): 673 nM and 210 nM
- TGI (SNB-75 CNS): 12200 nM and 2190 nM
- GI50 (DU-145 prostate): 1460 nM and 634 nM
- TGI (DU-145 prostate): > 100000 nM
- GI50 (MDA-MB-231 breast): 4630 nM and 1020 nM
- TGI (MDA-MB-231 breast): 34200 nM and > 72700 nM
- GI50 (SF-268 CNS): 1130 nM and 578 nM
- TGI (SF-268 CNS): 31200 nM and > 100000 nM
- GI50 (IGROV1 ovarian): 2010 nM and 365 nM
- TGI (IGROV1 ovarian): 26900 nM and 7290 nM
- GI50 (HS 578T breast): 448 nM and 194 nM
- GI50 (EKVX NSCLC): 24300 nM and 2730 nM
- TGI (EKVX NSCLC): > 100000 nM
- GI50 (SK-OV-3 ovarian): 2550 nM and 634 nM
- TGI (SK-OV-3 ovarian): 42400 nM and 21200 nM
- GI50 (A549 NSCLC): 3330 nM and 390 nM
- TGI (A549 NSCLC): > 100000 nM
- GI50 (CCRF-CEM leukemia): 278 nM
- TGI (CCRF-CEM leukemia): > 100000 nM
- GI50 (HOP-62 NSCLC): 2210 nM and 877 nM
- TGI (HOP-62 NSCLC): 21400 nM and 7510 nM
- GI50 (HCC-2998 colon): 9630 nM
- TGI (HCC-2998 colon): > 100000 nM
- GI50 (KM12 colon): 668 nM and 455 nM
- TGI (KM12 colon): > 100000 nM
- GI50 (NCI-H226 lung): 13400 nM and 20900 nM
- TGI (NCI-H226 lung): > 100000 nM
- GI50 (SK-MEL-5 melanoma): 403 nM and 397 nM
- GI50 (SF-539 CNS): 978 nM and 331 nM
- TGI (SF-539 CNS): 16800 nM and 2050 nM
- GI50 (OVCAR-8 ovarian): 4250 nM and 1090 nM
- TGI (OVCAR-8 ovarian): 55400 nM and > 79000 nM
- GI50 (K-562 leukemia): 623 nM
- TGI (K-562 leukemia): > 100000 nM
- GI50 (OVCAR-5 ovarian): 712 nM and 3630 nM
- TGI (OVCAR-5 ovarian): > 100000 nM
- TGI (UACC-257 melanoma): > 100000 nM
- GI50 (HT29 colon): 565 nM and 341 nM
- GI50 (RPMI-8226 leukemia): 534 nM and 277 nM
- TGI (RPMI-8226 leukemia): 4190 nM and 1330 nM
- GI50 (SN12C renal): 3790 nM and 797 nM
- TGI (SN12C renal): > 100000 nM
- GI50 (M14 melanoma): 966 nM and 436 nM
- TGI (M14 melanoma): > 100000 nM
- GI50 (HL-60(TB) leukemia): 322 nM and 297 nM
- TGI (HL-60(TB) leukemia): 1000 nM and 2130 nM
- GI50 (SNB-19 CNS): 650 nM and 708 nM
- TGI (SNB-19 CNS): 29300 nM and 23500 nM
- GI50 (HCT-116 colon): 537 nM and 402 nM
- TGI (HCT-116 colon): > 100000 nM
- TGI (ACHN renal): > 100000 nM
- GI50 (OVCAR-4 ovarian): 8370 nM and 1410 nM
- TGI (OVCAR-4 ovarian): > 100000 nM
